Test results reported in PubChem BioAssay (NCI).
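All cell lines were grown in 96-well plates and treated with compound for 48 hours. GI50 = concentration required for 50% inhibition of growth. TGI denotes the concentration required for complete inhibition of growth.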

Legend:
Assay in all cases: growth of human tumour cells (NCI), 48 h
[1] = system: SR leukemia
[2] = system: OVCAR-5 ovarian
[3] = system: DU-145 prostate
[4] = system: UACC-257 melanoma
[5] = system: MDA-MB-231 breast
[6] = system: MALME-3M melanoma
[7] = system: SF-295 CNS
[8] = system: LOX IMVI melanoma
[9] = system: 786-0 renal
[10] = system: OVCAR-4 ovarian
[11] = system: SNB-19 CNS
[12] = system: UACC-62 melanoma
[13] = system: KM12 colon
[14] = system: IGROV1 ovarian
[15] = system: A549 NSCLC
[16] = system: NCI-H460 lung
[17] = system: HT29 colon
[18] = system: SK-MEL-2 melanoma
[19] = system: SF-539 CNS
[20] = system: RXF 393 renal
[21] = system: ACHN renal
[22] = system: SK-OV-3 ovarian
[23] = system: SF-268 CNS
[24] = system: U251 CNS
[25] = system: NCI-H23 lung
[26] = system: A498 renal
[27] = system: HS 578T breast
[28] = system: HOP-62 NSCLC
[29] = system: SN12C renal
[30] = system: OVCAR-8 ovarian
[31] = system: PC-3 prostate
[32] = system: SW-620 colon
[33] = system: BT-549 breast
[34] = system: M14 melanoma
[35] = system: OVCAR-3 ovarian
[36] = system: SK-MEL-5 melanoma
[37] = system: MOLT-4 leukemia
[38] = system: EKVX NSCLC
[39] = system: UO-31 renal
[40] = system: HOP-92 NSCLC
[41] = system: SNB-75 CNS
[42] = system: NCI-H522 lung
[43] = system: MCF7 breast
[44] = system: MDA-MB-468 breast
[45] = system: CAKI-1 renal
[46] = system: T-47D breast
[47] = system: HCC-2998 colon
[48] = system: K-562 leukemia
[49] = system: MDA-MB-435
[50] = system: HL-60(TB) leukemia
[51] = system: NCI-H226 lung
[52] = system: COLO 205 colon
[53] = system: CCRF-CEM leukemia
[54] = system: RPMI-8226 leukemia
[55] = system: HCT-15 colon
[56] = system: HCT-116 colon
[57] = system: SK-MEL-28 melanoma
[58] = system: TK-10 renal

Structure (SMILES): COc1ccccc1[C@H]1C(C(=O)c2ccc(Cl)cc2)C2(N[C@@H]1c1ccccc1)C(=O)Nc1ccc(Cl)cc12 (stereo not given in full)
- GI50 [1]: 1.86 µM
- TGI [1]: 26.6 µM
- GI50 [2]: 8.44 µM
- TGI [2]: > 57.5 µM
- GI50 [3]: 2.56 µM
- TGI [3]: > 57.5 µM
- GI50 [4]: 4.86 µM
- TGI [4]: > 57.5 µM
- GI50 [5]: 1.36 µM
- TGI [5]: 12.5 µM
- GI50 [6]: 7.44 µM
- TGI [6]: 21.1 µM
- GI50 [7]: 3.43 µM
- TGI [7]: > 57.5 µM
- GI50 [8]: 1.72 µM
- TGI [8]: 21.2 µM
- GI50 [9]: 8.96 µM
- TGI [9]: 35.5 µM
- GI50 [10]: 10.4 µM
- TGI [10]: > 57.5 µM
- GI50 [11]: 14 µM
- TGI [11]: > 57.5 µM
- GI50 [12]: 1.72 µM
- TGI [12]: 8.69 µM
- GI50 [13]: 8.36 µM
- TGI [13]: > 57.5 µM
- GI50 [14]: 9.15 µM
- TGI [14]: > 57.5 µM
- GI50 [15]: 2.76 µM
- TGI [15]: > 57.5 µM
- GI50 [16]: 2.32 µM
- GI50 [17]: 1.73 µM
- TGI [17]: 7.91 µM
- GI50 [18]: 4.08 µM
- TGI [18]: 13.6 µM
- GI50 [19]: 8.51 µM
- TGI [19]: 30.3 µM
- GI50 [20]: 1.66 µM
- TGI [20]: 13.8 µM
- GI50 [21]: 6.62 µM
- TGI [21]: 53.7 µM
- GI50 [22]: 5.17 µM
- TGI [22]: > 57.5 µM
- GI50 [23]: 9.79 µM
- TGI [23]: > 57.5 µM
- GI50 [24]: 2.86 µM
- TGI [24]: > 57.5 µM
- GI50 [25]: 8.68 µM
- TGI [25]: > 57.5 µM
- GI50 [26]: 15.3 µM
- TGI [26]: 52.1 µM
- GI50 [27]: 2.56 µM
- TGI [27]: 34.2 µM
- GI50 [28]: 9.31 µM
- TGI [28]: > 57.5 µM
- GI50 [29]: 2.83 µM
- TGI [29]: 13.5 µM
- GI50 [30]: 7.52 µM
- TGI [30]: > 57.5 µM
- GI50 [31]: 1.46 µM
- TGI [31]: > 57.5 µM
- GI50 [32]: 4.28 µM
- TGI [32]: > 57.5 µM
- GI50 [33]: 1.35 µM
- TGI [33]: 18.6 µM
- GI50 [34]: 3.55 µM
- TGI [34]: > 57.5 µM
- GI50 [35]: 2.76 µM
- TGI [35]: > 57.5 µM
- GI50 [36]: 2.69 µM
- TGI [36]: 10.6 µM
- GI50 [37]: 1.92 µM
- TGI [37]: > 57.5 µM
- GI50 [38]: 8.12 µM
- TGI [38]: > 57.5 µM
- GI50 [39]: 2.26 µM
- TGI [39]: > 57.5 µM
- GI50 [40]: 4.52 µM
- TGI [40]: 37.1 µM
- GI50 [41]: 2.27 µM
- TGI [41]: > 57.5 µM
- GI50 [42]: 1.3 µM
- TGI [42]: 5.51 µM
- GI50 [43]: 2 µM
- TGI [43]: > 57.5 µM
- GI50 [44]: 1.38 µM
- TGI [44]: 16.2 µM
- GI50 [45]: 1.68 µM
- TGI [45]: > 57.5 µM
- GI50 [46]: 4.61 µM
- TGI [46]: > 57.5 µM
- GI50 [47]: 9.77 µM
- TGI [47]: 43.8 µM
- GI50 [48]: 1.78 µM
- TGI [48]: > 57.5 µM
- GI50 [49]: 1.82 µM
- TGI [49]: 8.94 µM
- GI50 [50]: 1.77 µM
- TGI [50]: 25.2 µM
- GI50 [51]: 8.32 µM
- TGI [51]: > 57.5 µM
- GI50 [52]: 9.92 µM
- TGI [52]: 21.1 µM
- GI50 [53]: 2.14 µM
- TGI [53]: > 57.5 µM
- GI50 [54]: 5.91 µM
- TGI [54]: 50.7 µM
- GI50 [55]: 6.98 µM
- TGI [55]: > 57.5 µM
- GI50 [56]: 2.13 µM
- TGI [56]: > 57.5 µM
- GI50 [57]: 16.7 µM
- TGI [57]: > 57.5 µM
- GI50 [58]: 15.8 µM
- TGI [58]: > 57.5 µM
